A short description of one series: in vitro. To be noted: male, Sprague-Dawley, rat, microsomes, pH 7.4.
For series [1] the following is noted: rat, microsomes.
The test system of a further series is HEK293T cells. The note with it: human.

This note sets out measurements from PMC7383964 (Chemmedchem, 2020).

Molecules are shown by their SMILES.

By half-life is commonly meant the time needed for the level to fall by half in the phase considered. A low value points to fast loss.

`O=C(/N=N/c1ccc(F)cc1)N1CCCCC1` [Compound 18, (E)‐((4‐Fluorophenyl)diazenyl)(piperidin‐1‐yl)methanone] came in with a half-life in “in vitro” of 1.22 ± 0.2 h. For the same molecule, in series [1], the Intrinsic clearance is 97 ± 15 µL/min/mg.
The molecule `O=C(/C=C/c1ccc(F)cc1)N1CCCCC1` [Compound 19, (E)‐3‐(4‐Fluorophenyl)‐1‐(piperidin‐1‐yl)prop‐2‐en‐1‐one] gave a half-life in “in vitro” of 1.42 ± 0.3 h. Further, the Intrinsic clearance in series [1] was found to be 85 ± 20 µL/min/mg.
With `C=CCN1CC[C@]23c4c5ccc(O)c4O[C@H]2C(=O)CC[C@@]3(O)[C@H]1C5` [naloxone], the “Cell density relative to the effect of vehicle (DMSO)” value in the series on HEK293T cells was 84±5%.
